How the values were obtained:
[1] = 20 mg daily dose of tamoxifen; cited from earlier work
[2] = test system: rat optic nerve derived OPCs; assay: cell-based OPC differentiation assay quantifying % MBP-positive OLs by immunofluorescence after 6 days of treatment; conditions: for activity in enhancing OPC differentiation alone: single agent, without RXR activation; for effect on % T3-induced MBP+OLs in combination with bexarotene (phenocopy of tasin-1, tamoxifen, LXR antagonist): heat maps, average n=3
Description: Combination-based screening and evaluation of LXR modulators. Pairwise screening of bexarotene and partner compounds was done in matrices of 9-12 doses for each and transferred onto 3 separate 384-well plates. […] Heat maps were generated using Prism to highlight impact of the combinations relative to baseline controls.
We evaluated various reported inhibitors of CYP51, TM7SF2 and EBP for their ability to enhance bexarotene-induced remyelination. We quantified activity based on immunofluorescence analysis of % MBP+OLs after 6 days of compound treatment, with vehicle/DMSO, clemastine and triiodothyronine (T3) controls on each plate using rat optic nerve derived OPCs.

LXR = assay: confocal imaging and line profile analysis of LXR localization in OPCs/oligodendrocytes; assay type: cell-based; conditions: 6 days of treatment; immunofluorescence, confocal imaging
Protocol: Confocal imaging and analysis of LXR expression. […] OPCs were then seeded at a density of 1,000 cells per well, and the plates were incubated at 37° C. with 5% CO2 for 6 d. On day 6, cells were then fixed for 20 min with 4% formaldehyde solution and stained with anti-LXRalpha/beta antibody (cat. #sc-271064, Santa Cruz Biotechnology) in 3% BSA, 0.3% Triton X-100 with overnight incubation at 4° C. The cells were washed and incubated with secondary antibody (Alexa Fluor 488 goat anti-mouse IgG, Life Technologies) and Hoechst 33342 (Invitrogen) for 1 h at room temperature. The cells were washed and plates were sealed and imaged using a Cellomics Cell Insight imaging reader (Thermo). Randomly-selected fields from 6 wells selected at random were imaged at 50× magnification using a Zeiss 780 confocal microscope. 10 cells within images from each treatment group were randomly selected for line profile analysis.
A line profile analysis of fluorescent intensities was performed by drawing an 18.5 μm line through the center of individual cells (n=10), from approximately 2-4 microns beyond the nuclear membrane on each side using the Fiji image processing platform. Fluorescence intensities over distance (μm) was graphed using Prism 9 software (GraphPad).

[3] = dose of bexarotene used in the CCMR One trial; read-out: predicted Cmax; cited from earlier work

SMILES | activity in enhancing OPC differentiation alone [2] | localization of LXR following treatment (LXR) | effect on % T3-induced MBP+OLs in combination with bexarotene (phenocopy of tasin-1, tamoxifen, LXR antagonist) [2] | further results
CC/C(=C(\c1ccccc1)c1ccc(OCCN(C)C)cc1)c1ccccc1 [tamoxifen] | minimally active | significant shift in localization of LXR |  | steady state plasma concentration [1]: 834 nM
CC(C)=CCC[C@@H](C)[C@H]1CC=C2C3=C(CC[C@@]21C)[C@@]1(C)CC[C@H](O)C(C)(C)[C@@H]1CC3 [FF-MAS, Follicular fluid meiosis-activating sterol] |  |  | combines with bexarotene (RXRg agonist) to phenocopy tasin-1, tamoxifen, or an LXR antagonist | 
COc1ccc(S(=O)(=O)N2CCC(N3CCC(C)CC3)CC2)cc1 [tasin-1] | minimally active | significant shift in localization of LXR |  | 
CC(C)=CCC[C@@H](C)[C@H]1CC[C@H]2C3=C(CC[C@]12C)[C@@]1(C)CC[C@H](O)C[C@@H]1CC3 [Zymosterol] |  |  | phenocopies tasin-1, tamoxifen and LXR agonists | 
C=C(c1ccc(C(=O)O)cc1)c1cc2c(cc1C)C(C)(C)CCC2(C)C [bexarotene] |  |  |  | Cmax [3]: 2600 nM; cell-based OPC differentiation ECmax of bexarotene (concentration required to achieve optimal activity) ([2]; bexarotene combined with tamoxifen): ~150 nM
Cc1cc(C)c(S(=O)(=O)N(CCc2cccc(Br)c2)Cc2ccc(-c3cccc(S(C)(=O)=O)c3)cc2)c(C)c1 [SR9243] |  |  | phenocopies GSK2033, FFMAS, tasin-1 and tamoxifen | 

From patent publication US20250319078A1, “METHOD FOR SYNERGISTIC ENHANCEMENT OF REMYELINATION VIA MODULATION OF RXR AND A HETERODIMERIC PARTNER” (THE SCRIPPS RESEARCH INSTITUTE, priority 2022, published 2025)
